Assay results from US9085605B2, “Chemical synthesis and anti-tumor and anti-metastatic effects of dual functional conjugate” (Shenzhen Salubris Pharmaceuticals Co., Ltd., priority 2010, dated 2015).
Entries after “also recorded” stand apart in the source; their conditions may differ. Read-outs that look alike come from different tables or passages of the source. Marks after values point to notes of the source that are not given here.

What was measured:
[1] = system: 60 human tumor cell lines; assay: NCI screening of antitumor activity in vitro in 60 human tumor cell lines; format: cell-based
From the text: The experimental results refer to FIGS. 1-12.

[2] = system: Human breast cancer MCF-7; assay: Xenograft tumor nude mice screening, MCF-7; format: in vivo, BALB/c nu mice
Protocol: (§1) Certificate NO. SCXK (BeiJing) 2005-0013. • Cell lines: The tumor cell lines were passaged and cultured by our Lab, some of them was obtained from ATCC. • The tumor cell lines included: Human breast cancer MX-1 and MCF-7. • Human ovarian cancer A2780, and clear Human ovarian cell cancer ES-2, • Human lung cancer H1975 and A549. Experiment Method: • 1. […] The administration dose and treatment progress was determined based from the preliminary experiments, which had solid effects and the shortest treatment period—the dose of 30 mg/kg/day, and the administration duration time of every lot experiment was not more than 12 days.

Human lung cancer A549 = assay: Xenograft tumor nude mice screening, A549; format: in vivo, BALB/c nu mice
Protocol: as §1

Human lung cancer H1975 = assay: Xenograft tumor nude mice screening, H1975; format: in vivo, BALB/c nu mice; settings: 30 mg/kg × 12, i.p.
Protocol: as §1

[3] = system: Human ovarian cancer A2780; assay: Xenograft tumor nude mice screening, A2780; format: in vivo, BALB/c nu mice; settings: 30 mg/kg i.p., 10~12 times
Protocol: as §1

[4] = system: clear Human ovarian cell cancer ES-2; assay: Xenograft tumor nude mice screening, ES-2; format: in vivo, BALB/c nu mice; settings: 30 mg/kg i.p., 10~12 times
Protocol: as §1

[5] = system: Mice breast cancer cell line (4T1, ATCC CRL2539)
Protocol: Mice breast cancer cell line (4T1, ATCC CRL2539) was a generous gift from Prof. Wei Liang of the Institute of biophysics, Chinese Academy of Sciences. The cell was cultured in the 1640 medium (Gibco) containing 10% fetal bovine serum (FBS), 1% glutamine and 1% penicillin.
4T1 cells in logarithmic phase were collected and the concentration was adjusted to 2×10^6/mL. 4T1 tumors were introduced in female BALB/c mice by injecting subcutaneously into the fourth fat pad area of the right abdominal mammary gland with the dose of 2×10^5/0.1 mL. […] From the 9th day after implantation, tumor growth was measured every 2 days with vernier calipers for determining the long diameter and short diameter of tumor. Tumor volume was calculated by the formula (½)×long diameter×short diameter^2. Drug was withdrawn on the twenty-eight days after the implantation, all mice were then sacrificed and the body weight were measured. The tumors, spleen and lung were removed and weighed. The lungs were fixed in Bouin's fixative for 24 h. The numbers of lung metastasis nodule were counted, the statistics was evaluated using Mann-Whitney U test.

lewis lung cancer [6] = settings: 10 mg/kg i.p. once daily
Protocol: C57Bl/6 mice with lewis lung cancer were sacrificed and the tumor was removed. The tumor cell suspension (5×10^6 cell/mL) was prepared in a sterile condition. The suspension (0.2 mL/mice, 1×10^6 tumor cell) was inoculated subcutaneously into the axillary of 24 C57Bl/6 mice. […] From the 7th day after the implantation, the long diameter and short diameter of tumor was measured every 2 days. Tumor volume was calculated by the formula (½)×long diameter×short diameter^2. Drug was withdrawn on the eighteenth day after the implantation. All mice were then sacrificed and the body weight was measured. The tumors, spleen and lung were removed and weighed. The lungs were fixed in Bouin's fixative for 24 h. The numbers of lung metastasis nodule were counted, and the statistics was evaluated by Mann-Whitney U test.

lewis lung cancer [7] = assay: Anti-artificial metastasis on Lewis lung cancer in mice (intravenous inoculation); format: in vivo, C57Bl/6 mice
Protocol: The suspension (0.2 mL/mice, 3×10^5 tumor cell) was inoculated intravenously into the tails of fifty C57Bl/6 mice. […] The tumors, spleen and lung were removed and weighed.

[8] = Toxicity test by single dose, intravenous; format: in vivo, ICR mice
[9] = 112.5 mg·kg^−1 i.v. single dose

In the case of `CC(=O)O[C@H]1C(=O)[C@@]2(C)[C@H]([C@H](OC(=O)c3ccccc3)[C@]3(O)C[C@H](OC(=O)[C@H](OC(=O)CCC(=O)NCCCCC(NC(=O)CC[C@H](NC(=O)C(C)NC(=O)/C=C/c4ccc(Cl)cc4)C(N)=O)C(N)=O)[C@@H](NC(=O)c4ccccc4)c4ccccc4)C(C)=C1C3(C)C)[C@]1(OC(C)=O)CO[C@@H]1C[C@@H]2O` (some centres unmarked) [MTC-220], the “50% growth inhibition (GI50) activity” value [1] is reported as “in the same magnitude range as paclitaxel”, the “Body weight Beginning” value ([2]; 30 mg/kg × 12, i.p.) is reported as 20.8 ± 1.14 g and the “Body weight End” value ([2]; 30 mg/kg × 12, i.p.) is reported as 23.3 ± 1.22 g. The RTV ([2]; 30 mg/kg × 12, i.p.) was 0**, the T/C ([2]; 30 mg/kg × 12, i.p.) was 0% and the TGI ([2]; 30 mg/kg × 12, i.p.) was 100%. The “Tumor volume Beginning” value ([2]; 30 mg/kg × 12, i.p.) was 142 ± 73.5 mm^3, the “Tumor volume End” value ([2]; 30 mg/kg × 12, i.p.) was 0 mm^3 and the “Tumor weight” value ([2]; 30 mg/kg × 12, i.p.) was 0** g. For the same compound, the “Tumor observation (in words)” value ([2]; 30 mg/kg/day, 10 administrations, then withdrawal) was “disappeared one after another; also recorded: disappeared after successive administration for 10 times”, the “Body weight Beginning” value (Human lung cancer A549; 30 mg/kg × 12, i.p.) was 25.2 ± 1.31 g and the “Body weight End” value (Human lung cancer A549; 30 mg/kg × 12, i.p.) was 26.3 ± 1.51 g. For the same compound, the RTV (Human lung cancer A549; 30 mg/kg × 12, i.p.) was 0.67 ± 0.411, the “Tumor volume Beginning” value (Human lung cancer A549; 30 mg/kg × 12, i.p.) was 95 ± 27.7 mm^3 and the “Tumor volume End” value (Human lung cancer A549; 30 mg/kg × 12, i.p.) was 74 ± 55.2 mm^3. For the same compound, the Tumor weight (Human lung cancer A549; 30 mg/kg × 12, i.p.) was 0.062 ± 0.041 g, the Death (Human lung cancer A549; 30 mg/kg/day, after drug withdrawal) was “one mouse died one week after drug withdrawal” and the “Tumor observation (in words)” value (Human lung cancer A549; 30 mg/kg/day, during the administration) was “became smaller and smaller, but didn't disappear”. The “Body weight Beginning” value (Human lung cancer H1975) was 24.1 ± 1.20 g, the “Body weight End” value (Human lung cancer H1975) was 26.6 ± 0.76 g and the RTV (Human lung cancer H1975) was 0.66 ± 0.464. The “Tumor volume Beginning” value (Human lung cancer H1975) was 135 ± 50.6 mm^3, the “Tumor volume End” value (Human lung cancer H1975) was 127 ± 106.1 mm^3 and the Tumor weight (Human lung cancer H1975) was 0.13 ± 0.103 g. The “Inhibition of tumor growth (in words)” value [3] was “at certain degree, but didn't attain the valid standard”, the “Inhibition of tumor growth (in words)” value [4] was “at certain degree, but didn't attain the valid standard” and the Lung weight ([5]; 2.5 mg/kg i.p. once daily) was 153 ± 18 mg. For the same compound, the Lung weight ([5]; 5.0 mg/kg i.p. once daily) was 160 ± 15 mg, the “Toxic and side effects” value ([5]; 2.5, 5, 10 mg/kg i.p. once daily) was “no toxic and side effects” and the “Lung metastasis nodule numbers compared to vehicle control (in words)” value ([5]; 2.5, 5, 10 mg/kg, p<0.01, dose dependent) was “significantly decreased”. The Lung weight (lewis lung cancer [6]) was 152 ± 37 mg, the “Toxic and side effect” value (lewis lung cancer [6]) was “no toxic and side effect” and the Body weight (lewis lung cancer [7]; 2.5 mg/kg i.p.) was 19.0 ± 1.9 g. The Lung weight (lewis lung cancer [7]; 2.5 mg/kg i.p.) was 334 ± 217 mg, the Body weight (lewis lung cancer [7]; 5 mg/kg i.p.) was 18.4 ± 2.3 g and the Lung weight (lewis lung cancer [7]; 5 mg/kg i.p.) was 492 ± 353 mg. The Lung weight (lewis lung cancer [7]; 10 mg/kg i.p.) was 393 ± 326 mg, the “Lung metastasis nodule number compared to vehicle control (in words)” value (lewis lung cancer [7]; 2.5, 5, 10 mg/kg, dose dependent) was “significantly decreased” and the “Anatomical examination of organs” value [8, 9] was “no sign of abnormal changes”. For the same compound, the “Body weight compared with control group” value [8, 9] was “not significantly different”, the Symptoms after injection [8, 9] was “voluntary activities of mice in administered group were reduced, some mice showed jumping symptoms” and the “Time to recovery from symptoms” value [8, 9] was “about 10 min”. The Death ([8]; 112.5 mg·kg^−1 i.v. single dose, 14 days observation) was “no death occured” and the MTD at 14 days ([8]; mouse, in vivo, 112.5 mg·kg^−1, single intravenous injection, ICR mice) was over 112 mg/kg.
